Data taken from patent US9951058B2, “Compound, pharmaceutically acceptable salt or optical isomer thereof, method for preparing the same, and pharmaceutical composition for prevention or treatment of viral diseases containing same as active ingredient” (Korea Research Institute of Chemical Technology, priority 2012, dated 2018).
Values after ≈ are worked out from the molar mass of the structure shown.

Assays:
[1] = test system: coxsackievirus B3 (Cox B3); test: Multicycle cytopathic effect (CPE) reduction assay; assay type: cell-based; conditions: Enterovirus B, B3, 72 h, read-out: EC50 CoxB3
[2] = test system: HRV 71; test: Cytopathic effect (CPE) inhibition assay; assay type: cell-based, human rhinovirus; conditions: Human rhinovirus sp., 72 h; host cell HeLa, 3 days, MEM/2% FBS, MTT assay; read-out: EC50 HRV 71
[3] = test system: coxsackievirus B1 (Cox B1); test: Multicycle cytopathic effect (CPE) reduction assay; assay type: cell-based; conditions: Enterovirus B, B1, 72 h, read-out: EC50 CoxB1
[4] = test system: HRV 21; test: Cytopathic effect (CPE) inhibition assay; assay type: cell-based, human rhinovirus; conditions: Human rhinovirus sp., 72 h; host cell HeLa, 3 days, MEM/2% FBS, MTT assay; read-out: EC50 HRV 21
[5] = Cytotoxicity (CC50) in multicycle CPE reduction assay, MTS; conditions: human
[6] = test system: HRV 14; test: Cytopathic effect (CPE) inhibition assay; assay type: cell-based, human rhinovirus; conditions: Human rhinovirus sp., HeLa, 72 h, host cell HeLa, 3 days, MEM/2% FBS, MTT assay; read-out: EC50 HRV 14
[7] = test system: poliovirus 3 (PV3); test: microbe, parasite or virus in culture; assay type: cell-based; conditions: Enterovirus C, 72 h, read-out: EC50 PV3
[8] = in vitro; conditions: human

SMILES	EC50 [1]	EC50 [2]	EC50 [3]	EC50 [4]	CC50 at 3 days [5]	EC50 [6]	EC50 [7]	CC50 [8]
CCOC(=O)C(=O)NC12C(=O)c3cccc([N+](=O)[O-])c3C1(O)Oc1cc(C(C)C)ccc12 (centres unmarked) [Example 33, Ethyl 2-((4b-hydroxy-7-isopropyl-4-nitro-10-oxo-4b, 10-dihydro-9bH-indeno[1,2-b]benzofuran-9b-yl)amino)-2-oxo acetate]	< 10 µg/mL	> 10 µg/mL	< 10 µg/mL	> 10 µg/mL	> 10 µg/mL	> 10 µg/mL	> 10 µg/mL	> 10 µg/mL
CCCC(=O)C(=O)NC12C(=O)c3c(N)cccc3C1(O)Oc1cc(C(C)C)ccc12 (centres unmarked) [Example 52, N-(1-amino-4b-hydroxy-7-isopropyl-10-oxo-4b, 10-dihydro-9bH-indeno[1,2-b]benzofuran-9b-yl)-2-oxo pentanamide]	< 0.01 µg/mL	> 10 µg/mL	< 0.01 µg/mL	> 10 µg/mL	> 10 µg/mL	< 0.01 µg/mL	< 0.1 µg/mL	> 10 µg/mL
CC(C)c1ccc2c(c1)OC1(O)c3ccccc3C(=O)C21NC(=O)C(=O)N(C)C (centres unmarked) [Example 21, N1-(4b-hydroxy-7-isopropyl-10-oxo-4b, 10-dihydro-9bH-indeno[1,2-b]benzofuran-9b-yl)-N2, N2-dimethyl oxal amide]	< 0.1 µg/mL	> 10 µg/mL	< 0.1 µg/mL	> 10 µg/mL	> 10 µg/mL	< 1 µg/mL	< 10 µg/mL	> 10 µg/mL
CC(C)c1ccc2c(c1)OC1(O)c3ccccc3C(=O)C21NC(=O)C(=O)CC(=O)c1ccncc1 (centres unmarked) [Example 42, N-(4b-hydroxy-7-isopropyl-10-oxo-4b, 10-dihydro-9bH-indeno[1,2-b]benzofuran-9b-yl)-2,4-dioxo-4-(pyridyn-4-yl)butanamide]	< 0.1 µg/mL	> 10 µg/mL	< 0.1 µg/mL	> 10 µg/mL	> 10 µg/mL	< 10 µg/mL	> 10 µg/mL	> 10 µg/mL
Cc1cc2c(cc1C)C1(NC(=O)C(=O)c3ccccc3)C(=O)c3ccccc3C1(O)O2 (centres unmarked) [Example 12, N-(4b-hydroxy-7,8-dimethyl-10-oxo-9b, 10-dihydro-4bH-indeno[1,2-b]benzofuran-9b-yl)-2-oxo-2-phenyl acetamide]	0.064 µg/mL (≈ 0.155 µM)	> 10 µg/mL	0.015 µg/mL (≈ 0.0363 µM)	> 10 µg/mL	> 10 µg/mL	2.08 µg/mL (≈ 5.03 µM)	9.8 µg/mL (≈ 23.7 µM)	> 10 µg/mL
CCCCCCC(=O)C(=O)NC12C(=O)c3cccc([N+](=O)[O-])c3C1(O)Oc1cc(C(C)C)ccc12 (centres unmarked) [Example 35, N-(4b-hydroxy-7-isopropyl-4-nitro-10-oxo-4b, 10-dihydro-9bH-indeno[1,2-b]benzofuran-9b-yl)-2-oxo octanamide]	< 1 µg/mL	> 10 µg/mL	< 1 µg/mL	> 10 µg/mL	> 10 µg/mL	< 10 µg/mL	< 10 µg/mL	> 10 µg/mL
CC(C)c1ccc2c(c1)OC1(O)c3ccccc3C(=O)C21NC#N (centres unmarked) [Example 46, N-(4b-hydroxy-7-isopropyl-10-oxo-4b, 10-dihydro-9bH-indeno[1,2-b]benzofuran-9b-yl)cyanamide]	< 10 µg/mL	> 10 µg/mL	< 10 µg/mL	> 10 µg/mL	> 10 µg/mL	> 10 µg/mL	> 10 µg/mL	> 10 µg/mL
CCC(C)C(=O)C(=O)NC12C(=O)c3cccc([N+](=O)[O-])c3C1(O)Oc1cc(C(C)C)ccc12 (centres unmarked) [Example 28, N-(4b-hydroxy-7-isopropyl-4-nitro-10-oxo-4b, 10-dihydro-9bH-indeno[1,2-b]benzofuran-9b-yl)-3 methyl-2-oxo pentanamide]	< 10 µg/mL	> 10 µg/mL	< 1 µg/mL	> 10 µg/mL	> 10 µg/mL	< 10 µg/mL	> 10 µg/mL	> 10 µg/mL
CC(C)c1ccc2c(c1)OC1(O)c3c(cccc3[N+](=O)[O-])C(=O)C21NC(=O)C(=O)CCc1ccccc1 (centres unmarked) [Example 53, N-(4b-hydroxy-7-isopropyl-4-nitro-10-oxo-4b, 10-dihydro-9bH-indeno[1,2-b]benzofuran-9b-yl)-2-oxo-4-phenyl butanamide]	< 10 µg/mL	> 4.8 µg/mL	< 10 µg/mL	> 4.8 µg/mL	> 10 µg/mL	> 4.8 µg/mL	> 10 µg/mL	4.8 µg/mL (≈ 9.59 µM)
CCC(C)C(=O)C(=O)NC12C(=O)c3ccccc3C1(O)Oc1cc(C(C)C)ccc12 (centres unmarked) [Example 29, N-(4b-hydroxy-7-isopryl-10-oxo-4b, 10-dihydro-9bH-indeno[1,2-b]benzofuran-9b-yl)-3-methyl-2-oxo pentanamide]	< 0.1 µg/mL	> 10 µg/mL	< 0.1 µg/mL	> 10 µg/mL	> 10 µg/mL	< 1 µg/mL	< 1 µg/mL	> 10 µg/mL
CC(C)c1ccc2c(c1)OC1(O)c3ccccc3C(=O)C21OC(=O)NCCNC(=O)OC(C)(C)C (centres unmarked) [Example 56, Tert-butyl (4b-hydroxy-7-isopropyl-10-oxo-4b, 10-dihydro-9bH-indeno[1,2-b]benzofuran-9b-yl)ethan-1,2-diyl dicarbamate]	< 10 µg/mL	> 10 µg/mL	< 10 µg/mL	> 10 µg/mL	> 10 µg/mL	> 10 µg/mL	> 10 µg/mL	> 10 µg/mL
CC(C)c1ccc2c(c1)OC1(O)c3c(cccc3[N+](=O)[O-])C(=O)C21NC(=O)C(=O)c1ccccc1 (centres unmarked) [Example 16, N-(4b-hydroxy-7-isopropyl-4-nitro-10-oxo-9b, 10-dihydro-4bH-indeno[1,2-b]benzofuran-9b-yl)-2-oxo-2-phenyl acetamide]	0.33 µg/mL (≈ 0.698 µM)	> 10 µg/mL	0.078 µg/mL (≈ 0.165 µM)	> 10 µg/mL	> 10 µg/mL	1.77 µg/mL (≈ 3.75 µM)	2.13 µg/mL (≈ 4.51 µM)	> 10 µg/mL
CC(=O)C(=O)NC12C(=O)c3ccccc3C1(O)Oc1cc(C(C)C)ccc12 (centres unmarked) [Example 4, N-(4b-hydroxy-7-isopropyl-10-oxo-9b, 10-dihydro-4bH-indeno[1,2-b]benzofuran-9b-yl)-2-oxo propanamide]	< 0.01 µg/mL	> 9.02 µg/mL	< 0.01 µg/mL	> 9.02 µg/mL	> 10 µg/mL	< 0.1 µg/mL	< 1 µg/mL	9.02 µg/mL (≈ 24.7 µM)
COc1cc(C(=O)C(=O)NC23C(=O)c4cccc([N+](=O)[O-])c4C2(O)Oc2cc(C(C)C)ccc23)cc(OC)c1OC (centres unmarked) [Example 58, N-(4b-hydroxy-7-isopropyl-4-nitro-10-oxo-4b, 10-dihydro-9bH-indeno[1,2-b]benzofuran-9b-yl) 2-oxo-2-(3,4,5-trimethoxyphenyl)acetamide]	< 10 µg/mL	> 10 µg/mL	< 10 µg/mL	> 10 µg/mL	> 10 µg/mL	< 10 µg/mL	> 10 µg/mL	> 10 µg/mL
CC(C)c1ccc2c(c1)OC1(O)c3cccc(N)c3C(=O)C21NC(=O)C(=O)c1ccccc1 (centres unmarked) [Example 11, N-(1-amino-4b-hydroxy-7-isopropyl-10-oxo-9b, 10-dihydro-4bH-indeno[1,2-b]benzofuran-9b-yl)-2-oxo-2-phenyl acetamide]	< 0.01 µg/mL	> 7.82 µg/mL	< 0.01 µg/mL	3.13 µg/mL (≈ 7.07 µM)	8.72 µg/mL (≈ 19.7 µM)	< 0.1 µg/mL	< 0.1 µg/mL	7.82 µg/mL (≈ 17.7 µM)
CCCC(=O)C(=O)NC12C(=O)c3cccc([N+](=O)[O-])c3C1(O)Oc1cc(C(C)C)ccc12 (centres unmarked) [Example 34, N-(4b-hydroxy-7-isopropyl-4-nitro-10-oxo-4b, 10-dihydro-9bH-indeno[1,2-b]benzofuran-9b-yl)-2-oxo pentanamide]	< 10 µg/mL	> 10 µg/mL	< 1 µg/mL	> 10 µg/mL	> 10 µg/mL	< 10 µg/mL	< 10 µg/mL	> 10 µg/mL
CC(C)c1ccc2c(c1)OC1(O)c3ccccc3C(=O)C21NC(=O)C(=O)C(C)(C)C (centres unmarked) [Example 37, N-(4b-hydroxy-7-isopropyl-10-oxo-4b, 10-dihydro-9bH-indeno[1,2-b]benzofuran-9b-yl)-3,3-dimethyl-2-oxo butanamide]	< 0.1 µg/mL	> 10 µg/mL	< 0.1 µg/mL	> 10 µg/mL	> 10 µg/mL	< 0.1 µg/mL	< 10 µg/mL	> 10 µg/mL
CCC(C)C(=O)C(=O)NC12C(=O)c3c(N)cccc3C1(O)Oc1cc(C(C)C)ccc12 (centres unmarked) [Example 40, N-(1-amino-4b-hydroxy-7-isopropyl-10-oxo-4b, 10-dihydro-9bH-indeno[1,2-b]benzofuran-9b-yl)-3-methyl-2-oxo pentanamide]	< 0.01 µg/mL	> 10 µg/mL	< 0.01 µg/mL	> 10 µg/mL	> 10 µg/mL	< 0.1 µg/mL	< 0.1 µg/mL	> 10 µg/mL
CC(=O)C(=O)NC12C(=O)c3cccc([N+](=O)[O-])c3C1(O)Oc1cc(C(C)C)ccc12 (centres unmarked) [Example 19, N-(4b-hydroxy-7-isopropyl-4-nitro-10-oxo-4b, 10-dihydro-9bH-indeno[1,2-b]benzofuran-9b-yl)-2-oxo propanamide]	< 1 µg/mL	> 10 µg/mL	< 1 µg/mL	> 10 µg/mL	> 10 µg/mL	< 10 µg/mL	< 10 µg/mL	> 10 µg/mL
